Results taken from patent EP0994713B1, “USE OF A 7alpha-METHYL-17alpha-ETHYNYL-ESTRANE DERIVATIVE FOR THE TREATMENT OF ATHEROSCLEROSIS” (Akzo Nobel N.V., priority 1997, dated 1998).

Tests used:
Assay type in all cases: in vivo, New Zealand White rabbits
[1] = tested on: female ovariectomized rabbits; test: Intimal thickening (advanced lesions) in carotid artery after de-endothelialisation; conditions: for Advanced lesions in carotid artery: intimal surface: cholesterol diet, OVX, necropsy at 20 weeks
Description: (§1) The model is considered relevant to the human atherosclerotic process, because the cellular events occurring during the development of the atherosclerotic lesions during the atherogenic diet are similar to those observed in different stages of atherosclerotic processes in coronary arteries.
(§2) An experiment was performed with 7 groups of sexually mature, virgin female New Zealand White rabbits (Harlan, Zeist, The Netherlands), age 7-9 months and weighing approximately 3 kg (number of […] per group: 13-14). During the acclimatization period the rabbits were fed a diet of standard commercial rabbit chow LKK20 (Hope Farms, Woerden, The Netherlands). Three weeks prior to the start of the experiment the animals were anaesthetized and underwent bilateral ovariectomy (OVX) or were sham operated. After three weeks, at the start of the experiment, the rabbits were randomized over the treatment groups. In all animals de-endothelialisation of a segment of the left carotid artery was applied by using the air-drying technique (Fishman, J.A. et al., "Endothelial regeneration in the rat carotid artery and the significance of endothelial denudation in the pathogenesis of myointimal thickening", Lab. Invest. 1975, 32, 339-351; and Lafont, A. et al., "Restenosis and experimental angioplasty: Intimal, medial and adventitial changes associated with constructive remodeling", Circulation Research, 1995, 76, 996-1002)
(§3) The animals were randomly allocated into 7 experimental groups using a randomized block design. The groups were fed an atherogenic diet (commercial rabbit chow (LKK20) enriched with 0.4 grams cholesterol, 3.75 grams coconut oil and 3.75 grams peanut oil per 100 grams). One group was fed the standard rabbit chow (LKK20). Food intake was restricted to 80 grams daily.
(§4) The treatments (Table I) were daily administered orally as a tablet, prepared as in Example 1. Groups 1, 2 and 3 were on a daily placebo treatment. Groups 4-5 were treated with 7α-methyl-17α-ethynyl-17β-hydroxy-estra-5(10)-en-3-one (OD-14; tibolone; 6 or 2 mg daily); group 6 with 17β-estradiol (4 mg daily). Group 7 was on treatment with 17β-estradiol decanoate (150 µg in 1 ml arachis oil injected subcutaneously once a week).
During the experiment blood samples were drawn out of the central ear artery after sedation with Hypnorm (0.1 ml i.m.) (Janssen Pharmaceutics, Beerse, Belgium) before the daily treatment, at week 4,8,12,16 and 20, to monitor the plasma cholesterol levels and to measure, at week 17, plasma estradiol levels and plasma tibolone levels. Twenty weeks after the start of the experiment animals were anaesthetized by an i.m. injection of Hypnorm (0.5 ml/kg). After blood sampling the rabbits were killed by exsanguination and the aortic arch, uterus and carotid artery removed for further analyses. […]
The left (airdried) carotid artery was dissected and fixed in 2% paraformaldehyde containing 6.8% glucose. The right carotid artery was used as comparison. After fixation the tissue was divided in blocks with a length of 2 mm and embedded in paraffin (Paraplast plus®, Sherwood Medical Co, St. Louis, USA) using an automated tissue processor (Hypercenter XP, Shandon).
To measure intimal thickening (using image analysis) a specific staining method and a belonging image analysis application have been developed.
Measurements were performed on 2 µm transverse sections which were treated with elastase (Serva Feinbiochemica Gmbh, Heidelberg, Germany) prior to elastin staining with Lawson solution (Boom, Meppel, the Netherlands) and light green (Sigma). Subsequently sections were airdried and mounted in Pertex (Leica Gmbh, Nussloch, Germany).
For morphological study both methylene blue/Azur II and hemotoxylin/eosin stained (2 µm) transverse sections were used. Smooth muscle cells and macrophages were detected with respectively α-actin antibodies (Sigma) and anti-macrophage antibodies (RAM11, DAKO, Glostrup, Denmark). […]

[2] = Plasma estradiol and plasma tibolone levels at week 17; conditions: rabbit, 6 mg per day
Description: (§5) During the experiment blood samples were drawn out of the central ear artery after sedation with Hypnorm (0.1 ml i.m.) (Janssen Pharmaceutics, Beerse, Belgium) before the daily treatment, at week 4,8,12,16 and 20, to monitor the plasma cholesterol levels and to measure, at week 17, plasma estradiol levels and plasma tibolone levels. Twenty weeks after the start of the experiment animals were anaesthetized by an i.m. injection of Hypnorm (0.5 ml/kg). After blood sampling the rabbits were killed by exsanguination and the aortic arch, uterus and carotid artery removed for further analyses.
The plasma levels indicate that both modes of administration of estradiol lead to effective plasma levels. Using the human doses of estradiol and Org OD14 used for HRT treatment and corrected for the caloric intake it was expected that in the rabbit an oral dose of 4 mg estradiol is about equipotent with 6 mg Org OD14.

[3] = tested on: female ovariectomized rabbits; test: Uterus weight (estrogenic activity), cholesterol fed rabbit model; conditions: for Uterus weight per 100 grams body weight: cholesterol diet, OVX, necropsy at 20 weeks
Description: as §1, §2, §3, §4, §5
(§6) In addition to example 2 an additional experiment was performed with two lower doses of Org OD14 and a higher dose of estradiol decanoate. […] The procedures were identical to those in example 2.
(§7) Three weeks prior to the start of the experiment the animals were ovariectomized. At the start of the experiment the carotid artery was de-endothelialised using the air-drying technique. The normal rabbit chow was replaced by the atherogenic diet except for the control group which received during the experiment the normal rabbit chow.
(§8) The treatments (table II) of group 1, 2, 3 and 4 were daily administered orally as a tablet, prepared as in example 1. The doses of Org OD14 per tablet, however, were 0.6 mg and 0.15 mg respectively. Group 5 was on treatment with 17β-estradiol decanoate (300 µg in 1 ml arachis oil injected subcutaneously once a week). Twenty weeks after the start of the experiment was ended in the same manner as described in example 2.
(§9) After 20 weeks of diet and of daily treatment, necropsy was performed to determine the accumulation of cholesterol and fatty streaks in the aortic arch and the advanced lesions in the carotid artery. […]

[4] = Body weight at necropsy, cholesterol fed rabbit model; conditions: cholesterol diet, OVX, necropsy at 20 weeks
Description: as §1, §2, §3, §4, §5, §6, §7, §8, §9

[5] = Example 2, Group 4: 6 mg orally daily
[6] = Example 2, Group 5: 2 mg orally daily
[7] = Example 3: 0.15 mg orally once daily
[8] = Example 3: 0.6 mg orally once daily

C#C[C@]1(O)CC[C@H]2[C@@H]3[C@H](C)CC4=C(CCC(=O)C4)[C@H]3CC[C@@]21C [Org OD14, 7α-methyl-17α-ethynyl-17β-hydroxy-estra-5(10)-en-3-one]
Advanced lesions in carotid artery: intimal surface [1, 5]: 0.13 ± 0.03 * mm^2 | Advanced lesions in carotid artery: intimal surface [1, 6]: 0.14 ± 0.02 * mm^2 | Histology of the lesions ([1]; Example 2, carotid artery, placebo on cholesterol diet: smooth muscle cells and foam cells): the lesions consisted only of smooth muscle cells | advanced lesion formation following mechanical de-endothelisation (in words) ([1]; Example 2: Org OD14 2 and 6 mg, E2 4 mg orally daily, E2D 150 µg s.c. weekly): strongly inhibited the formation of advanced lesions | Advanced lesions in carotid artery: intimal surface [1, 7]: 0.24 ± 0.05 mm^2 | Advanced lesions in carotid artery: intimal surface [1, 8]: 0.14 ± 0.01 * mm^2 | plasma concentrations of Org OD14 [2]: comparable to those obtained in women with the clinical dose of 2.5 mg | Uterus weight per 100 grams body weight [3, 5]: 0.24 ±0.06 per 100 grams body weight | Uterus weight per 100 grams body weight [3, 6]: 0.29 ±0.03 per 100 grams body weight | uterus weight increase (estrogenic activity, in words) ([3]; Example 2: Org OD14 2 and 6 mg per day): to a similar extent as both estradiol treatments | increase of uterus weight ([3]; Example 3, text: Org OD14 (0.15 mg dose per Table IV), versus placebo 0.054): 144% | uterus weight ([3]; Example 3, text: Org OD14 (0.15 mg dose per Table IV), placebo 0.054): 0.132 grams per 100 grams body weigh | Uterus weight per 100 grams body weight [3, 7]: 0.132 ±0.013 per 100 grams body weight | Uterus weight per 100 grams body weight [3, 8]: 0.224 ±0.016 per 100 grams body weight | Body weight [4, 5]: 2758 ± 41 grams | Body weight [4, 6]: 2815 ± 50 grams | Body weight [4, 7]: 2850 ± 42 grams | Body weight [4, 8]: 3008 ± 58 grams
